Source: US20080214671A1, “Dicarbonic Acid Derivatives, Metastasis Inhibitors and Agents Increasing Chemotherapeutic Activity of Anti-Tumor Preparations, Method for Enhancing the Cytostatic Efficiency and Metastasis Process Inhibiting Method” (priority 2005, published 2008)

How the values were obtained:
Format in all cases: in vivo
Leukemia P388 = test: P388 leukemia in BDF1 mice, combined therapy with cytostatic
Method: (§1) An experimental study of the anti-tumor activity of the FB-13 preparation as a chemosensitizer was carried out on tumor models of P388 leukemia and Lewis metastatic lung carcinoma, which can be seen in Examples 5 and 6.
Leukemia P388 was intraperitoneally inoculated to hybrid mice BDF1. The inoculum was 10^6 leukemic cells in 0.2 ml normal saline. The preparation was administered at a dose 10 mg/kg, cisplatin—at a dose 2 mg/kg on days 1, 3, 5 and 7 post transplantation. The number of cured (surviving for 60 days) animals served as an assessment criterion.
Similar studies were carried out with the preparation FB-14 (50 mg/kg) and cyclophosphane (60 mg/kg).
Furthermore, a significant increase in the average life span (ILS) of the animals as compared to the control group is shown in FIG. 4b.

Lewis lung carcinoma = Lewis lung carcinoma in BDF1 mice, metastasis inhibition in the lungs
Method: as §1
Lewis lung carcinoma was subcutaneously inoculated to hybrid mice BDF1. The inoculum was 5×10^6 tumor cells. The combined effect of FB-13 and cisplatin was investigated. The index of metastasis inhibition (IMI in %) in the lungs served as the assessment criterion. When cisplatin was administered alone, IMI was 50%, in combined administration with FB-13, it was 100% (FIG. 2).

B-16 melanoma = B-16 melanoma in BDF1 mice, metastasis inhibition in the lungs
Method: Experimental B-16 melanoma was subcutaneously engrafted to hybrid mice BDF1. The inoculum was 5×10^6 tumor cells. The combined effect of FB-13 and cisplatin was investigated. The index of metastasis inhibition (IMI in %) in the lungs served as the assessment criterion. When cisplatin was administered alone, IMI was 52%, in combined administration with FB-13, it was 100%. Similar studies were carried out with hydroxamic acids based on oxalic acid (the compound L215) and based on tartaric acid (the compound L221). Tests for acute toxicity were carried out in the group of experimental oncology of the IPKhF of the RAS by intraperitoneal administration of the preparations in water to BDF1 mice. […] The use of these compounds at the minimum doses in combination with the minimum doses of cytostatics (when neither of the preparations taken alone provides a therapeutic effect) makes complete inhibition of the metastasis process in experimental B-16 melanoma or Lewis lung carcinoma possible. Furthermore, the use of dicarbonic acid oxyamides as agents for enhancing the anti-tumor effect makes it possible in a combination with the minimum amounts of oxyamide and a cytostatic (a unit dose of cytostatics being 4 times lower than a therapeutic dose) to enhance the efficacy in the treatment of P-388 leukemia (survival rate of the animals is 100%).

[1] = cisplatin administered alone, s.c. inoculum 5x10^6 cells
[2] = combined administration of FB-13 with cisplatin

N.N.[Cl][Pt][Cl] [cisplatin]
number of cured (surviving for 60 days) animals (Leukemia P388; only cisplatin, 2 mg/kg on days 1, 3, 5 and 7 post transplantation, i.p. inoculum 10^6 cells): 66.7%
index of metastasis inhibition (IMI) in the lungs (Lewis lung carcinoma; [1]): 50%
index of metastasis inhibition (IMI) in the lungs (B-16 melanoma; [1]): 52%

NC(=O)C(N)=O.O=C(O)/C=C\C(=O)O [FB-13, Maleic acid monooxamide]
number of cured (surviving for 60 days) animals (Leukemia P388; combined administration: FB-13 10 mg/kg and cisplatin 2 mg/kg on days 1, 3, 5 and 7): 100%
index of metastasis inhibition (IMI) in the lungs (Lewis lung carcinoma; [2]): 100%
index of metastasis inhibition (IMI) in the lungs (B-16 melanoma; [2]): 100%
